Experimental data from the supplement of paper PMC10307832.

Key:
Assay in all cases: relative viability (nuclei count vs DMSO), 5 days (fraction); higher = more cells survive
LU99A = system: LU99A
Procedure, shortened: (§1)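 Relative viability was taken as the ratio of nuclei in treated wells to nuclei in vehicle wells. Lung cancer cell lines in 1536-well plates received compounds by pin tool one day after seeding, either one drug alone or a fixed anchor-drug dose plus five library-drug doses (not always all listed) in √10 steps. Nuclei were counted on 4× images after 5 days of treatment, and values are medians of duplicate plates.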

BEN = system: BEN
Procedure, shortened: as §1

NCI-H1355 = system: NCI-H1355
Procedure, shortened: as §1

SK-MES-1 = system: SK-MES-1
Procedure, shortened: as §1

HCC-78 = system: HCC-78
Procedure, shortened: as §1

NCI-H1975 = system: NCI-H1975
Procedure, shortened: as §1

LK-2 = system: LK-2
Procedure, shortened: as §1

LCLC-97TM1 = system: LCLC-97TM1
Procedure, shortened: as §1

NCI-H596 = system: NCI-H596
Procedure, shortened: as §1

NCI-H1651 = system: NCI-H1651
Procedure, shortened: as §1

NCI-H1666 = system: NCI-H1666
Procedure, shortened: as §1

PC-3 [JPC-3] = system: PC-3 [JPC-3]
Procedure, shortened: as §1

NCI-H661 = system: NCI-H661
Procedure, shortened: as §1

NCI-H358 = system: NCI-H358
Procedure, shortened: as §1

NCI-H650 = system: NCI-H650
Procedure, shortened: as §1

LC-2-ad = system: LC-2-ad
Procedure, shortened: as §1

NCI-H2087 = system: NCI-H2087
Procedure, shortened: as §1

LXF-289 = system: LXF-289
Procedure, shortened: as §1

NCI-H838 = system: NCI-H838
Procedure, shortened: as §1

NCI-H1944 = system: NCI-H1944
Procedure, shortened: as §1

COc1cc2nccc(Oc3ccc(NC(=O)Nc4cc(C)on4)c(Cl)c3)c2cc1OC [Tivozanib] + CS(=O)(=O)CCNCc1ccc(-c2ccc3ncnc(Nc4ccc(OCc5cccc(F)c5)c(Cl)c4)c3c2)o1 [Lapatinib] (partner 2 µM)
relative viability (LU99A; first compound 0.005 µM): 0.914 | relative viability (LU99A; first compound 0.01581 µM): 0.924 | relative viability (LU99A; first compound 0.05 µM): 0.967 | relative viability (LU99A; first compound 0.5 µM): 0.919 | relative viability (BEN; first compound 0.005 µM): 0.476 | relative viability (BEN; first compound 0.01581 µM): 0.839 | relative viability (BEN; first compound 0.05 µM): 0.722 | relative viability (BEN; first compound 0.5 µM): 0.633 | relative viability (NCI-H1355; first compound 0.005 µM): 0.894 | relative viability (NCI-H1355; first compound 0.01581 µM): 0.941 | relative viability (NCI-H1355; first compound 0.05 µM): 1 | relative viability (NCI-H1355; first compound 0.5 µM): 0.92 | relative viability (SK-MES-1; first compound 0.005 µM): 0.421 | relative viability (SK-MES-1; first compound 0.01581 µM): 0.446 | relative viability (SK-MES-1; first compound 0.05 µM): 0.5 | relative viability (SK-MES-1; first compound 0.1581 µM): 0.437 | relative viability (SK-MES-1; first compound 0.5 µM): 0.509 | relative viability (HCC-78; first compound 0.005 µM): 0.683 | relative viability (HCC-78; first compound 0.01581 µM): 0.772 | relative viability (HCC-78; first compound 0.05 µM): 0.851 | relative viability (HCC-78; first compound 0.1581 µM): 1.58 | relative viability (HCC-78; first compound 0.5 µM): 0.455 | relative viability (NCI-H1975; first compound 0.005 µM): 0.792 | relative viability (NCI-H1975; first compound 0.01581 µM): 0.871 | relative viability (NCI-H1975; first compound 0.05 µM): 0.864 | relative viability (NCI-H1975; first compound 0.1581 µM): 0.755 | relative viability (NCI-H1975; first compound 0.5 µM): 0.723 | relative viability (LK-2; first compound 0.005 µM): 0.951 | relative viability (LK-2; first compound 0.01581 µM): 0.842 | relative viability (LK-2; first compound 0.05 µM): 0.918 | relative viability (LK-2; first compound 0.1581 µM): 0.742 | relative viability (LK-2; first compound 0.5 µM): 0.683 | relative viability (LCLC-97TM1; first compound 0.005 µM): 0.948 | relative viability (LCLC-97TM1; first compound 0.01581 µM): 1.23 | relative viability (LCLC-97TM1; first compound 0.1581 µM): 0.807 | relative viability (LCLC-97TM1; first compound 0.5 µM): 0.821 | relative viability (NCI-H596; first compound 0.005 µM): 0.998 | relative viability (NCI-H596; first compound 0.01581 µM): 1.04 | relative viability (NCI-H596; first compound 0.05 µM): 1.04 | relative viability (NCI-H596; first compound 0.1581 µM): 1.04 | relative viability (NCI-H596; first compound 0.5 µM): 1.08 | relative viability (NCI-H1651; first compound 0.005 µM): 0.744 | relative viability (NCI-H1651; first compound 0.01581 µM): 0.864 | relative viability (NCI-H1651; first compound 0.05 µM): 0.863 | relative viability (NCI-H1651; first compound 0.1581 µM): 0.653 | relative viability (NCI-H1651; first compound 0.5 µM): 0.634 | relative viability (NCI-H1666; first compound 0.005 µM): 0.561 | relative viability (NCI-H1666; first compound 0.01581 µM): 0.621 | relative viability (NCI-H1666; first compound 0.05 µM): 0.641 | relative viability (NCI-H1666; first compound 0.1581 µM): 0.607 | relative viability (NCI-H1666; first compound 0.5 µM): 0.84 | relative viability (PC-3 [JPC-3]; first compound 0.005 µM): 0.429 | relative viability (PC-3 [JPC-3]; first compound 0.01581 µM): 0.453 | relative viability (PC-3 [JPC-3]; first compound 0.05 µM): 0.509 | relative viability (PC-3 [JPC-3]; first compound 0.1581 µM): 0.378 | relative viability (PC-3 [JPC-3]; first compound 0.5 µM): 0.433 | relative viability (NCI-H661; first compound 0.005 µM): 0.436 | relative viability (NCI-H661; first compound 0.01581 µM): 0.495 | relative viability (NCI-H661; first compound 0.05 µM): 0.46 | relative viability (NCI-H661; first compound 0.1581 µM): 0.496 | relative viability (NCI-H661; first compound 0.5 µM): 0.553 | relative viability (NCI-H358; first compound 0.005 µM): 0.476 | relative viability (NCI-H358; first compound 0.01581 µM): 0.563 | relative viability (NCI-H358; first compound 0.05 µM): 0.479 | relative viability (NCI-H358; first compound 0.1581 µM): 0.435 | relative viability (NCI-H358; first compound 0.5 µM): 0.499 | relative viability (NCI-H650; first compound 0.005 µM): 0.759 | relative viability (NCI-H650; first compound 0.01581 µM): 0.807 | relative viability (NCI-H650; first compound 0.05 µM): 0.844 | relative viability (NCI-H650; first compound 0.1581 µM): 0.415 | relative viability (NCI-H650; first compound 0.5 µM): 0.535 | relative viability (LC-2-ad; first compound 0.005 µM): 0.959 | relative viability (LC-2-ad; first compound 0.01581 µM): 0.944 | relative viability (LC-2-ad; first compound 0.05 µM): 0.856 | relative viability (LC-2-ad; first compound 0.1581 µM): 0.542 | relative viability (LC-2-ad; first compound 0.5 µM): 0.466 | relative viability (NCI-H2087; first compound 0.005 µM): 1 | relative viability (NCI-H2087; first compound 0.01581 µM): 0.885 | relative viability (NCI-H2087; first compound 0.05 µM): 0.942 | relative viability (NCI-H2087; first compound 0.1581 µM): 1.2 | relative viability (NCI-H2087; first compound 0.5 µM): 0.859 | relative viability (LXF-289; first compound 0.005 µM): 0.888 | relative viability (LXF-289; first compound 0.01581 µM): 0.886 | relative viability (LXF-289; first compound 0.05 µM): 0.902 | relative viability (LXF-289; first compound 0.1581 µM): 0.946 | relative viability (LXF-289; first compound 0.5 µM): 0.905 | relative viability (NCI-H838; first compound 0.005 µM): 0.933 | relative viability (NCI-H838; first compound 0.01581 µM): 0.913 | relative viability (NCI-H838; first compound 0.05 µM): 1.01 | relative viability (NCI-H838; first compound 0.5 µM): 0.87 | relative viability (NCI-H1944; first compound 0.005 µM): 0.826 | relative viability (NCI-H1944; first compound 0.01581 µM): 0.888 | relative viability (NCI-H1944; first compound 0.05 µM): 0.758 | relative viability (NCI-H1944; first compound 0.1581 µM): 0.666 | relative viability (NCI-H1944; first compound 0.5 µM): 0.841
